Experimental data taken from US12139520B2 (priority 2020, dated 2024).
Bridge positions count the residues as written; N and C are the ends. Square brackets hold non-standard residues; d marks the D form. Peptide text beside a SMILES is read from it. Hyp = O=C(O)[C@@H]1C[C@@H](O)CN1

Tests used:
hAMY3 receptor = biological target: T1, hAMY3 receptor (Homo sapiens, UniProt O60896+P30988); assay: cAMP assay for in vitro receptor activation, hAMY3-R; type: cell-based; settings: cAMP assay, hAMY3 receptor; read-out: hAMY3R EC50
T1 sequence (P30988 25-474): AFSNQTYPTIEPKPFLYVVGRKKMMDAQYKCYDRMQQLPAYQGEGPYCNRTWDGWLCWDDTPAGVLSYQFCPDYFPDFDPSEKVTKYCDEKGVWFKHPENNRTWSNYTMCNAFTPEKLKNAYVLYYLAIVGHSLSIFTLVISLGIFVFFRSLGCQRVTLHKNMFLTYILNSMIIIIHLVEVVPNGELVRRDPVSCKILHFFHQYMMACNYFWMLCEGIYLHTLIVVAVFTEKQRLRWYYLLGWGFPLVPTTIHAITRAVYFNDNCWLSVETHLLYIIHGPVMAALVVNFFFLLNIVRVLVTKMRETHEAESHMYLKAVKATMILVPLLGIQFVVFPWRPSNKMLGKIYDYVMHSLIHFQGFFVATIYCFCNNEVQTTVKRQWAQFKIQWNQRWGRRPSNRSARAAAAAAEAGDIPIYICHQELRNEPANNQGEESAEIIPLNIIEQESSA
T1 sequence (O60896 24-148 partner): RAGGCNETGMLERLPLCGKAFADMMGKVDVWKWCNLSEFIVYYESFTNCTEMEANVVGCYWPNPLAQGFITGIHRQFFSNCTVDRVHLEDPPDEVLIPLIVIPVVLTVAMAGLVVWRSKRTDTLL
Outline: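 Accumulated cAMP was detected by time-resolved FRET one hour after reagent addition. Beforehand, hAMY3-R-overexpressing monoclonal cells (2000/well, DPBS, 0.05% casein, 0.5 mM IBMX) received graded doses of compound for 30 min at room temperature; human amylin served as positive control.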

[1] = Physical stability of peptide analogues (Thioflavin T fibrillation); type: physicochemical; settings: maximum ThT signal normalized between hAMY maximum and buffer background; 40° C., shaking, four days; pH 7 per table title
Outline: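 Samples are stressed at 40 °C for four days, being shaken at 700 rpm before each 10-min fluorescence reading of 4 μM Thioflavin T. Buffers were pH 4 acetate or pH 7 phosphate. Reported values are smoothed maximum ThT signals as a percentage of the hAMY-to-background range.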

EC50 (hAMY3 receptor) [nM]	Max ThT signal (%) [1] [%]	Compound
0.04	3.600	CC[C@H](C)[C@H](NC(=O)[C@H](CCC(N)=O)NC(=O)[C@H](Cc1c[nH]cn1)NC(=O)[C@H](C)NC(=O)[C@H](CC(C)C)NC(=O)[C@H](CCCNC(=N)N)NC(=O)[C@H](CCC(N)=O)NC(=O)[C@@H](NC(=O)[C@@H](NC(=O)[C@@H]1CSSC[C@H](NC(=O)CN)C(=O)N[C@@H](CCCNC(=N)N)C(=O)N[C@@H](Cc2ccccc2)C(=O)NCC(=O)N[C@@H]([C@@H](C)O)C(=O)N1)[C@@H](C)O)C(C)C)C(=O)N[C@@H](Cc1ccc(O)cc1)C(=O)N[C@@H](CCC(N)=O)C(=O)N[C@@H](Cc1ccccc1)C(=O)N[C@H](C(=O)N[C@@H](CC(=O)O)C(=O)N[C@@H](CCCCN)C(=O)N[C@@H](CC(=O)O)C(=O)N[C@@H](CCCCN)C(=O)N[C@@H](CC(=O)O)C(=O)N[C@@H](CC(N)=O)C(=O)N[C@H](C(=O)N[C@@H](C)C(=O)N1CCC[C@H]1C(=O)N[C@@H](CCCNC(=N)N)C(=O)N[C@H](C(=O)N[C@@H](CCCCN)C(=O)N[C@H](C(=O)N[C@@H](CO)C(=O)N1CCC[C@H]1C(=O)N[C@@H](CCC(N)=O)C(=O)NCC(=O)N1C[C@H](O)C[C@H]1C(N)=O)[C@@H](C)CC)[C@@H](C)O)C(C)C)[C@@H](C)O [compound 146] (H-GCRFGTCTVQRLAHQIYQFTDKDKDNVAPRTKISPQG[Hyp]-NH2; disulfide 2-7; N-terminus assumed)
0.032	17.400	CC[C@H](C)[C@H](NC(=O)[C@H](CCC(N)=O)NC(=O)[C@H](Cc1c[nH]cn1)NC(=O)[C@H](C)NC(=O)[C@H](CC(C)C)NC(=O)[C@H](CCCNC(=N)N)NC(=O)[C@H](CCC(N)=O)NC(=O)[C@@H](NC(=O)[C@@H](NC(=O)[C@@H]1CSSC[C@H](NC(=O)CN)C(=O)N[C@@H](CCCNC(=N)N)C(=O)N[C@@H](Cc2ccccc2)C(=O)NCC(=O)N[C@@H]([C@@H](C)O)C(=O)N1)[C@@H](C)O)C(C)C)C(=O)N[C@@H](Cc1ccc(O)cc1)C(=O)N[C@@H](CCC(N)=O)C(=O)N[C@@H](Cc1ccccc1)C(=O)N[C@H](C(=O)N[C@@H](CC(=O)O)C(=O)N[C@@H](CCCCN)C(=O)N[C@@H](CC(=O)O)C(=O)N[C@@H](CCCCN)C(=O)N[C@@H](CC(=O)O)C(=O)N[C@@H](CC(N)=O)C(=O)N[C@H](C(=O)N[C@@H](C)C(=O)N1CCC[C@H]1C(=O)N[C@@H](CCCNC(=N)N)C(=O)N[C@H](C(=O)N[C@@H](CCCCN)C(=O)N[C@H](C(=O)N[C@@H](CO)C(=O)N1CCC[C@H]1C(=O)N[C@@H](CC(N)=O)C(=O)NCC(=O)N1C[C@H](O)C[C@H]1C(N)=O)C(C)C)[C@@H](C)O)C(C)C)[C@@H](C)O [compound 134] (H-GCRFGTCTVQRLAHQIYQFTDKDKDNVAPRTKVSPNG[Hyp]-NH2; disulfide 2-7; N-terminus assumed)
0.04	25.800	CC[C@H](C)[C@H](NC(=O)[C@H](CC(N)=O)NC(=O)[C@H](CO)NC(=O)[C@H](CCCNC(=N)N)NC(=O)[C@@H]1CCCN1C(=O)[C@H](C)NC(=O)[C@@H](NC(=O)[C@H](CC(N)=O)NC(=O)[C@H](CC(=O)O)NC(=O)[C@H](CCCCN)NC(=O)[C@H](CC(=O)O)NC(=O)[C@H](CCCCN)NC(=O)[C@H](CC(=O)O)NC(=O)[C@@H](NC(=O)[C@H](Cc1ccccc1)NC(=O)[C@H](CCC(N)=O)NC(=O)[C@H](Cc1ccc(O)cc1)NC(=O)[C@@H](NC(=O)[C@H](CCC(N)=O)NC(=O)[C@H](Cc1c[nH]cn1)NC(=O)[C@H](C)NC(=O)[C@H](CC(C)C)NC(=O)[C@H](Cc1c[nH]c2ccccc12)NC(=O)[C@H](CCC(N)=O)NC(=O)[C@@H](NC(=O)[C@@H](NC(=O)[C@@H]1CSSC[C@H](NC(=O)CN)C(=O)N[C@@H](CCCNC(=N)N)C(=O)N[C@@H]([C@@H](C)O)C(=O)NCC(=O)N[C@@H]([C@@H](C)O)C(=O)N1)[C@@H](C)O)C(C)C)[C@@H](C)CC)[C@@H](C)O)C(C)C)C(=O)NCC(=O)N1CCC[C@H]1C(=O)N[C@@H](CC(N)=O)C(=O)NCC(=O)N1C[C@H](O)C[C@H]1C(N)=O [compound 352] (H-GCRTGTCTVQWLAHQIYQFTDKDKDNVAPRSNIGPNG[Hyp]-NH2; disulfide 2-7; N-terminus assumed)
0.04	14.300	CC[C@H](C)[C@H](NC(=O)[C@H](CCCCN)NC(=O)[C@H](CO)NC(=O)[C@H](CCCNC(=N)N)NC(=O)[C@@H]1CCCN1C(=O)[C@H](C)NC(=O)[C@@H](NC(=O)[C@H](CC(N)=O)NC(=O)[C@H](CC(=O)O)NC(=O)[C@H](CCCCN)NC(=O)[C@H](CC(=O)O)NC(=O)[C@H](CCCCN)NC(=O)[C@H](CC(=O)O)NC(=O)[C@@H](NC(=O)[C@H](Cc1ccccc1)NC(=O)[C@H](CCC(N)=O)NC(=O)[C@H](Cc1ccc(O)cc1)NC(=O)[C@@H](NC(=O)[C@H](CCC(N)=O)NC(=O)[C@H](Cc1c[nH]cn1)NC(=O)[C@H](C)NC(=O)[C@H](CC(C)C)NC(=O)[C@H](CCCNC(=N)N)NC(=O)[C@H](CCC(N)=O)NC(=O)[C@@H](NC(=O)[C@@H](NC(=O)[C@@H]1CSSC[C@H](NC(=O)CN)C(=O)N[C@@H](CCCNC(=N)N)C(=O)N[C@@H](Cc2ccccc2)C(=O)NCC(=O)N[C@@H]([C@@H](C)O)C(=O)N1)[C@@H](C)O)C(C)C)[C@@H](C)CC)[C@@H](C)O)C(C)C)C(=O)NCC(=O)N1CCC[C@H]1C(=O)N[C@@H](CCC(N)=O)C(=O)NCC(=O)N[C@@H](Cc1ccc(O)cc1)C(N)=O [compound 387] (H-GCRFGTCTVQRLAHQIYQFTDKDKDNVAPRSKIGPQGY-NH2; disulfide 2-7; N-terminus assumed)
0.017	24.850	CC[C@H](C)[C@H](NC(=O)[C@H](CCCCN)NC(=O)[C@@H](NC(=O)[C@H](CCCNC(=N)N)NC(=O)[C@@H]1CCCN1C(=O)[C@H](C)NC(=O)[C@@H](NC(=O)[C@H](CC(N)=O)NC(=O)[C@H](CC(=O)O)NC(=O)[C@H](CCCCN)NC(=O)[C@H](CC(=O)O)NC(=O)[C@H](CCCCN)NC(=O)[C@H](CC(=O)O)NC(=O)[C@@H](NC(=O)[C@H](Cc1ccccc1)NC(=O)[C@H](CCC(N)=O)NC(=O)[C@H](Cc1ccc(O)cc1)NC(=O)[C@@H](NC(=O)[C@H](CCC(N)=O)NC(=O)[C@H](Cc1c[nH]cn1)NC(=O)[C@H](C)NC(=O)[C@H](CC(C)C)NC(=O)[C@H](Cc1c[nH]c2ccccc12)NC(=O)[C@H](CCC(N)=O)NC(=O)[C@@H](NC(=O)[C@@H](NC(=O)[C@@H]1CSSC[C@H](NC(=O)CN)C(=O)N[C@@H](CCCNC(=N)N)C(=O)N[C@@H](Cc2ccccc2)C(=O)NCC(=O)N[C@@H]([C@@H](C)O)C(=O)N1)[C@@H](C)O)C(C)C)[C@@H](C)CC)[C@@H](C)O)C(C)C)[C@@H](C)O)C(=O)NCC(=O)N1CCC[C@H]1C(=O)N[C@@H](CC(N)=O)C(=O)NCC(=O)N1C[C@H](O)C[C@H]1C(N)=O [compound 343] (H-GCRFGTCTVQWLAHQIYQFTDKDKDNVAPRTKIGPNG[Hyp]-NH2; disulfide 2-7; N-terminus assumed)
0.098	6.300	CC[C@H](C)[C@H](NC(=O)[C@H](CC(N)=O)NC(=O)[C@H](CO)NC(=O)[C@H](CCCNC(=N)N)NC(=O)[C@@H]1CCCN1C(=O)[C@H](C)NC(=O)[C@@H](NC(=O)[C@H](CC(N)=O)NC(=O)[C@H](CC(=O)O)NC(=O)[C@H](CCCCN)NC(=O)[C@H](CC(=O)O)NC(=O)[C@H](CCCCN)NC(=O)[C@H](CC(=O)O)NC(=O)[C@@H](NC(=O)[C@H](Cc1ccccc1)NC(=O)[C@H](CCC(N)=O)NC(=O)[C@H](Cc1ccc(O)cc1)NC(=O)[C@@H](NC(=O)[C@H](CCC(N)=O)NC(=O)[C@H](Cc1c[nH]cn1)NC(=O)[C@H](C)NC(=O)[C@H](CC(C)C)NC(=O)[C@H](CCCNC(=N)N)NC(=O)[C@H](CCC(N)=O)NC(=O)[C@@H](NC(=O)[C@@H](NC(=O)[C@@H]1CSSC[C@H](NC(=O)CN)C(=O)N[C@@H](CCCNC(=N)N)C(=O)N[C@@H]([C@@H](C)O)C(=O)NCC(=O)N[C@@H]([C@@H](C)O)C(=O)N1)[C@@H](C)O)C(C)C)[C@@H](C)CC)[C@@H](C)O)C(C)C)C(=O)NCC(=O)N1CCC[C@H]1C(=O)N[C@@H](CCC(N)=O)C(=O)NCC(=O)N[C@@H](Cc1ccc(O)cc1)C(N)=O [compound 191] (H-GCRTGTCTVQRLAHQIYQFTDKDKDNVAPRSNIGPQGY-NH2; disulfide 2-7; N-terminus assumed)
